Data published in the supplement of paper PMC10307832.

How the values were obtained:
Experiment in all cases: relative viability (nuclei count vs DMSO), 5 days (fraction); higher = more cells survive
[1] = compound: C1=CC(=CC=C1NC(=S)NNC2=C(C=C(C=C2[N+](=O)[O-])C(F)(F)F)[N+](=O)[O-])F [Kobe2602] + CS(=O)(=O)CCNCc1ccc(-c2ccc3ncnc(Nc4ccc(OCc5cccc(F)c5)c(Cl)c4)c3c2)o1 [Lapatinib] (partner 2 µM)
Procedure, shortened: (§1)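 Nuclei were stained with Hoechst during a one-step fixation (final 0.05% Triton X-100, 1% formaldehyde, 1 ug/ml Hoechst) carried out 5 days after dosing, then counted on 4× images. The cells, lung cancer lines in 1536-well plates, had been dosed by pin tool the day after seeding with one drug alone or a fixed anchor-drug dose plus five library-drug doses (not always all listed) in √10 steps. Relative viability is the nuclei count in treated wells divided by that in vehicle wells, and each value is the median of duplicate plates.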

[2] = compound: C1=CC(=CC=C1NC(=S)NNC2=C(C=C(C=C2[N+](=O)[O-])C(F)(F)F)[N+](=O)[O-])F [Kobe2602] + NC(=O)Nc1cc(-c2cccc(F)c2)sc1C(=O)N[C@H]1CCCNC1 [AZD7762] (partner 0.2 µM)
Procedure, shortened: as §1

[3] = compound: O[C@@H](COc1cccc2ncccc12)CN1CCN([C@@H]2c3ccccc3[C@@H]3[C@H](c4ccccc42)C3(F)F)CC1 [Zosuquidar] + CC(=O)Nc1cccc(-n2c(=O)n(C3CC3)c(=O)c3c(Nc4ccc(I)cc4F)n(C)c(=O)c(C)c32)c1 [Trametinib] (partner 0.02 µM)
Procedure, shortened: as §1

[4] = compound: O[C@@H](COc1cccc2ncccc12)CN1CCN([C@@H]2c3ccccc3[C@@H]3[C@H](c4ccccc42)C3(F)F)CC1 [Zosuquidar] + O=C(c1cc(Cc2n[nH]c(=O)c3ccccc23)ccc1F)N1CCN(C(=O)C2CC2)CC1 [Olaparib] (partner 8 µM)
Procedure, shortened: as §1

| Cell Line | relative viability ([1]; first compound 0.2 µM) | relative viability ([1]; first compound 0.6325 µM) | relative viability ([1]; first compound 2 µM) | relative viability ([1]; first compound 6.325 µM) | relative viability ([1]; first compound 20 µM) | relative viability ([2]; first compound 0.2 µM) | relative viability ([2]; first compound 0.6325 µM) | relative viability ([2]; first compound 2 µM) | relative viability ([2]; first compound 6.325 µM) | relative viability ([2]; first compound 20 µM) | relative viability ([3]; first compound 0.01 µM) | relative viability ([3]; first compound 0.03162 µM) | relative viability ([3]; first compound 0.1 µM) | relative viability ([3]; first compound 0.3162 µM) | relative viability ([3]; first compound 1 µM) | relative viability ([4]; first compound 0.01 µM) | relative viability ([4]; first compound 0.03162 µM) | relative viability ([4]; first compound 0.1 µM) | relative viability ([4]; first compound 0.3162 µM) | relative viability ([4]; first compound 1 µM) |
| --- | --- | --- | --- | --- | --- | --- | --- | --- | --- | --- | --- | --- | --- | --- | --- | --- | --- | --- | --- | --- |
| 201T | 0.986 | 1.1 | 1.07 | 1.01 | 1.04 | 0.614 | 0.619 | 0.603 | 0.611 | 0.799 | 0.731 | 0.742 | 0.684 | 0.691 | 0.719 | 0.801 | 0.821 | 0.816 | 0.836 | 0.862 |
| A549 | 0.922 | 0.978 | 0.88 | 1.05 | 0.881 |  |  |  |  |  |  |  |  |  |  | 0.301 | 0.379 | 0.306 | 0.371 | 0.35 |
| A-427 | 0.995 | 1.02 | 1.01 | 1.03 | 0.953 | 0.784 | 0.809 | 0.808 | 0.812 | 0.939 | 0.795 | 0.871 | 0.77 | 0.82 | 0.741 | 0.757 | 0.711 | 0.76 | 0.771 | 0.819 |
| ABC-1 | 1.5 | 1.24 | 1.11 | 1.22 | 1.27 | 0.85 | 1 | 0.939 | 0.882 | 0.646 |  |  |  |  |  | 0.892 | 0.684 | 1.09 | 0.78 | 0.901 |
| BEN | 0.671 | 0.935 | 0.782 | 0.69 | 0.811 | 0.74 | 0.73 | 0.74 | 0.651 | 0.691 | 1.21 | 1.16 | 0.885 | 0.999 | 0.927 | 1.15 | 0.953 | 0.883 | 1.02 | 0.97 |
| CAL-12T | 0.676 | 0.717 | 0.681 | 0.627 | 0.696 | 0.644 | 0.736 | 0.568 | 0.609 | 0.506 | 0.327 | 0.449 | 0.262 | 0.442 | 0.32 | 0.739 | 0.715 | 0.741 | 0.793 | 0.706 |
| COR-L23 | 0.856 | 1.05 | 1.02 | 0.876 | 0.907 |  |  |  |  |  | 0.573 | 0.639 | 0.507 | 0.811 | 0.505 | 0.363 | 0.38 | 0.333 | 0.355 | 0.37 |
| COR-L 105 | 0.369 | 0.381 | 0.379 | 0.38 | 0.401 |  |  |  |  |  | 0.459 | 0.435 | 0.408 | 0.266 | 0.481 | 0.641 | 0.711 | 0.662 | 0.761 | 0.582 |
| Calu-6 | 1.08 | 1.14 | 1.1 | 1.04 | 0.995 |  |  |  |  |  |  |  |  |  |  | 0.583 | 0.677 | 0.714 | 0.605 | 0.594 |
| ChaGo-K-1 |  |  |  |  |  | 0.891 | 0.836 | 0.878 | 0.892 | 0.872 | 0.893 | 0.922 | 0.874 | 0.943 | 0.897 | 0.388 | 0.468 | 0.434 | 0.474 | 0.413 |
| EBC-1 | 0.211 | 0.201 | 0.204 | 0.227 | 0.208 |  |  |  |  |  |  |  |  |  |  | 0.692 | 0.797 | 0.638 | 0.827 | 0.705 |
| EKVX | 0.207 | 0.223 | 0.221 | 0.184 | 0.267 | 0.724 | 0.701 | 0.736 | 0.722 | 0.865 | 0.33 | 0.415 |  | 0.359 | 0.335 | 0.854 | 0.833 |  | 0.913 | 0.847 |
| EMC-BAC-2 | 0.89 | 0.935 | 0.904 | 0.904 | 0.909 | 1.14 | 1.16 | 1.06 | 1.21 | 1.16 | 0.92 | 0.988 | 0.842 | 1.02 | 0.883 | 0.467 | 0.487 | 0.529 | 0.535 | 0.482 |
| EPLC-272H | 1.05 | 0.956 | 0.916 | 0.853 | 1.01 | 0.349 | 0.212 | 0.187 | 0.24 | 0.282 | 0.285 | 0.274 | 0.278 | 0.276 | 0.285 | 0.755 | 0.912 | 0.909 | 0.96 | 0.745 |
| H3255 | 0.244 | 0.301 | 0.234 | 0.25 | 0.239 | 0.868 | 0.956 | 0.868 | 0.775 | 0.864 | 0.58 | 0.581 | 0.525 | 0.638 | 0.632 | 0.549 | 0.559 | 0.558 | 0.553 | 0.541 |
| HARA | 0.677 | 0.844 | 0.689 | 0.697 | 0.814 | 0.304 | 0.266 | 0.477 | 0.356 | 0.379 | 0.833 | 0.938 | 0.772 | 1.03 | 0.541 | 1.13 | 0.804 | 0.905 | 0.936 | 0.93 |
| HCC-15 | 0.856 | 0.937 | 0.81 | 0.863 | 0.809 | 1.03 | 1.2 | 1.02 | 1.17 | 1.43 | 0.393 | 0.374 | 0.345 | 0.397 | 0.38 | 0.717 | 0.725 | 0.799 | 0.72 | 0.747 |
| HCC-44 | 1 | 1.05 | 1.01 | 1.03 | 0.954 | 0.951 | 0.952 | 1.04 | 0.982 | 0.892 | 1.01 | 0.999 | 0.96 | 1.09 | 1.13 | 1.01 | 1.02 | 1.02 | 0.961 | 0.934 |
